How the values were obtained:
[1] = tested on: Tyrosine-protein kinase ABL1 (Homo sapiens), P00519 [F317I]; experiment: Selectivity interaction (KinomeScan (DiscoverX)) EUB0000045b ABL1; details: at 10 µM
[2] = target: T1, Interleukin-1 receptor-associated kinase 4 (Homo sapiens) (UniProt Q9NWZ3); experiment: Selectivity interaction (KinomeScan (DiscoverX)) EUB0000695a IRAK4; details: at 100 nM
T1 sequence (whole entry): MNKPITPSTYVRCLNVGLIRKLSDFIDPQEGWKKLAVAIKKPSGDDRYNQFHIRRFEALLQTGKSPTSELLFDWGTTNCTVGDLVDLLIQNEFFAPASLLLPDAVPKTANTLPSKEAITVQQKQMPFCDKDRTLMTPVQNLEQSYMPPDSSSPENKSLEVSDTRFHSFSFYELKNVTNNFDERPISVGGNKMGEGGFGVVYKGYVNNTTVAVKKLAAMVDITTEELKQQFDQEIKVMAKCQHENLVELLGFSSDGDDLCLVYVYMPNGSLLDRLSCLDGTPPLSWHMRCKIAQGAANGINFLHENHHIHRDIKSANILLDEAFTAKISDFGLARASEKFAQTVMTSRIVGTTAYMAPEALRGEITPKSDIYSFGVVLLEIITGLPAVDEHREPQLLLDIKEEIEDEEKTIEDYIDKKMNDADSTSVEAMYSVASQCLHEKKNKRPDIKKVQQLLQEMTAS

[3] = target: Mitogen-activated protein kinase kinase kinase 20 (Homo sapiens) (UniProt Q9NYL2); experiment: Selectivity interaction (ActivX KiNativ screen (ex vivo kinase selectivity in human PBMCs)) EUB0001619a MAP3K20; assay type: cell-based; details: PBMC, at 1 µM
[4] = target: T2, Serine/threonine-protein kinase Nek11 (Homo sapiens) (UniProt Q8NG66); experiment: Selectivity interaction (KinomeScan (DiscoverX)) EUB0000607a NEK11; details: at 10 µM
T2 sequence (whole entry): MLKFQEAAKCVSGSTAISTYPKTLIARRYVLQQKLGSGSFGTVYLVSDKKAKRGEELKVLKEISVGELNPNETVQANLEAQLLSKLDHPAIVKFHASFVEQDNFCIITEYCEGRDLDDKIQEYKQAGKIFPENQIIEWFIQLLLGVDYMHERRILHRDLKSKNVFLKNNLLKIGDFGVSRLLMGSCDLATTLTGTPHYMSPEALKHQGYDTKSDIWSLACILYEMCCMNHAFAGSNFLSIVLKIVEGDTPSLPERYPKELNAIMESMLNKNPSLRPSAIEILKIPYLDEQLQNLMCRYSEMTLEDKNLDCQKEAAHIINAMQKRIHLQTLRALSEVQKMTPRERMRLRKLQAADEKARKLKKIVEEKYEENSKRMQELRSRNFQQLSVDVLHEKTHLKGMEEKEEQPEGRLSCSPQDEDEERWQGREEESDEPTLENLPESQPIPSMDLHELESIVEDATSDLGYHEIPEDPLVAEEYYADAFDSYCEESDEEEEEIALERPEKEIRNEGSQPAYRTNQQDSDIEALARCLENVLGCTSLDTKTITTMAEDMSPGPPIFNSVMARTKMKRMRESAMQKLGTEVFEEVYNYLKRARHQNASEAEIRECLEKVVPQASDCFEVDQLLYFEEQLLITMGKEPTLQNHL

[5] = target: T3, Serine/threonine-protein kinase D1 (Homo sapiens) (UniProt Q15139); experiment: Selectivity interaction (KinomeScan (DiscoverX)) EUB0000607a PRKD1; details: at 10 µM
T3 sequence (whole entry): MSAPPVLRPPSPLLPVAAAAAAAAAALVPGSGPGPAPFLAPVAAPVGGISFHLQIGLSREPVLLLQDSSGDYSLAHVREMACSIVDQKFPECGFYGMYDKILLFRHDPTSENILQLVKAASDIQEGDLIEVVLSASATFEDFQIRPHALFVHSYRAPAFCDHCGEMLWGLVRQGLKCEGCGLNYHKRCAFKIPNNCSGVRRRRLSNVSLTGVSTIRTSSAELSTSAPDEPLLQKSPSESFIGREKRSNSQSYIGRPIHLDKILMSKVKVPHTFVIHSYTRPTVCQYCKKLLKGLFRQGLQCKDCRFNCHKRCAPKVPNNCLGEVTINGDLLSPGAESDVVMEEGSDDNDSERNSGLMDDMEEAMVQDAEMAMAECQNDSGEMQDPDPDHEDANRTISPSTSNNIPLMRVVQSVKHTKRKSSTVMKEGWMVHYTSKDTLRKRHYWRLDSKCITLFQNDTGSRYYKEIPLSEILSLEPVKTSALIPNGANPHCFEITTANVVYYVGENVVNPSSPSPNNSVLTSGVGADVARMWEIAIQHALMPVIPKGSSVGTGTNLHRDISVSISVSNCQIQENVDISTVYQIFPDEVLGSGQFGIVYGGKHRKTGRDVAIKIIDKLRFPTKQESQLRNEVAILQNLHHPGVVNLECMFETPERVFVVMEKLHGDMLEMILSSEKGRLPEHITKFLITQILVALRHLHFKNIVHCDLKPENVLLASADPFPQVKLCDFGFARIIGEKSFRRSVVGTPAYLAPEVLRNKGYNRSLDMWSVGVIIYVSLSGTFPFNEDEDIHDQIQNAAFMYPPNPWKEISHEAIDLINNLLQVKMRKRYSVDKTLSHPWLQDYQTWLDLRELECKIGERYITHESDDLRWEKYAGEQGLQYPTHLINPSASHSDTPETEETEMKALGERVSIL

[6] = target: T4, Muscarinic acetylcholine receptor M1 (Homo sapiens) (UniProt P11229); experiment: Selectivity interaction (Panel of kinases, GPCRs, ion channels and transporters (enzymatic assay)) EUB0000266bCl CHRM1
T4 sequence (whole entry): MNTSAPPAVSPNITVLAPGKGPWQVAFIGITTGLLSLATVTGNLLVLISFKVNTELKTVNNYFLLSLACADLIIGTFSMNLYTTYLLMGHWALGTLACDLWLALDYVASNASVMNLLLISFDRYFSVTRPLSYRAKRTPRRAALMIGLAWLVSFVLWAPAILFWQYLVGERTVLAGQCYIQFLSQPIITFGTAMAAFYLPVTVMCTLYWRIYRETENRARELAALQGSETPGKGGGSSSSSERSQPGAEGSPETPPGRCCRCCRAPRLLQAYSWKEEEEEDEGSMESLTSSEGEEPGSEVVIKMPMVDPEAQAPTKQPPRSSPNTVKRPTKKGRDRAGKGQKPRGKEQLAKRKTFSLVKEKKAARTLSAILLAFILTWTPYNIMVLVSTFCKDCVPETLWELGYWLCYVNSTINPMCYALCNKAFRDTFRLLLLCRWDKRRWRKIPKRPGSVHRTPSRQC

[7] = target: Serine/threonine-protein kinase WNK2 (Homo sapiens) (UniProt Q9Y3S1); experiment: Selectivity interaction (ActivX KiNativ screen (kinase selectivity in THP-1 cell lysates)) EUB0000639a WNK2; assay type: subcellular; details: lysate, at 0.04 µM
[8] = tested on: Tyrosine-protein kinase ABL1 (Homo sapiens), P00519 [Q252H]; experiment: (§1) Selectivity interaction (Ambit KINOMEscan and KiNATiv profiling in Jurkat cells) EUB0000090b ABL1; assay type: cell-based; details: at 1 µM
[9] = tested on: Tyrosine-protein kinase ABL1 (Homo sapiens), P00519 [H396P]; experiment: as §1; assay type: cell-based; details: at 1 µM

Mitogen-activated protein kinase kinase kinase 20 (Homo sapiens), sequence (Q9NYL2 2-800 limits assumed): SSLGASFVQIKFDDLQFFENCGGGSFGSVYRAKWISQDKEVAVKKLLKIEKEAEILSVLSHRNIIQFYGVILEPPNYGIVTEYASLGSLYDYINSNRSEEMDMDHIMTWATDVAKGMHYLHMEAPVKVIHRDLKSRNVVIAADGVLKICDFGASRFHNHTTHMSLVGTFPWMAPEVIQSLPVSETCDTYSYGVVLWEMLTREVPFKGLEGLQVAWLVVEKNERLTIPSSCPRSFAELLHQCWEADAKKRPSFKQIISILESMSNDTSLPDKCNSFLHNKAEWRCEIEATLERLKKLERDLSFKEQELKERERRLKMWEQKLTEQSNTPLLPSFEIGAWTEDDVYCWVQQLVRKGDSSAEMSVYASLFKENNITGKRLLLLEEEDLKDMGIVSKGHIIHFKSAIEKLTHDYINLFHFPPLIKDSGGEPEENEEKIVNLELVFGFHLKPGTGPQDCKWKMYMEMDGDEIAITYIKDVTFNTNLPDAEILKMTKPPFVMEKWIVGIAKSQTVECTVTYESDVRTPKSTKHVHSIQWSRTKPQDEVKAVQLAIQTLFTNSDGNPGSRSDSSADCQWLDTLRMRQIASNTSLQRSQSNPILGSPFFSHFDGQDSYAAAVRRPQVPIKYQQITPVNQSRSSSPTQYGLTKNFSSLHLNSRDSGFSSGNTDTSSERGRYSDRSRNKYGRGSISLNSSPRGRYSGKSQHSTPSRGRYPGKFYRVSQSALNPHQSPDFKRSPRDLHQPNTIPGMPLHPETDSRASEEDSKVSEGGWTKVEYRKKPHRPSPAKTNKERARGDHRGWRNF
Serine/threonine-protein kinase WNK2 (Homo sapiens), sequence (Q9Y3S1 whole entry): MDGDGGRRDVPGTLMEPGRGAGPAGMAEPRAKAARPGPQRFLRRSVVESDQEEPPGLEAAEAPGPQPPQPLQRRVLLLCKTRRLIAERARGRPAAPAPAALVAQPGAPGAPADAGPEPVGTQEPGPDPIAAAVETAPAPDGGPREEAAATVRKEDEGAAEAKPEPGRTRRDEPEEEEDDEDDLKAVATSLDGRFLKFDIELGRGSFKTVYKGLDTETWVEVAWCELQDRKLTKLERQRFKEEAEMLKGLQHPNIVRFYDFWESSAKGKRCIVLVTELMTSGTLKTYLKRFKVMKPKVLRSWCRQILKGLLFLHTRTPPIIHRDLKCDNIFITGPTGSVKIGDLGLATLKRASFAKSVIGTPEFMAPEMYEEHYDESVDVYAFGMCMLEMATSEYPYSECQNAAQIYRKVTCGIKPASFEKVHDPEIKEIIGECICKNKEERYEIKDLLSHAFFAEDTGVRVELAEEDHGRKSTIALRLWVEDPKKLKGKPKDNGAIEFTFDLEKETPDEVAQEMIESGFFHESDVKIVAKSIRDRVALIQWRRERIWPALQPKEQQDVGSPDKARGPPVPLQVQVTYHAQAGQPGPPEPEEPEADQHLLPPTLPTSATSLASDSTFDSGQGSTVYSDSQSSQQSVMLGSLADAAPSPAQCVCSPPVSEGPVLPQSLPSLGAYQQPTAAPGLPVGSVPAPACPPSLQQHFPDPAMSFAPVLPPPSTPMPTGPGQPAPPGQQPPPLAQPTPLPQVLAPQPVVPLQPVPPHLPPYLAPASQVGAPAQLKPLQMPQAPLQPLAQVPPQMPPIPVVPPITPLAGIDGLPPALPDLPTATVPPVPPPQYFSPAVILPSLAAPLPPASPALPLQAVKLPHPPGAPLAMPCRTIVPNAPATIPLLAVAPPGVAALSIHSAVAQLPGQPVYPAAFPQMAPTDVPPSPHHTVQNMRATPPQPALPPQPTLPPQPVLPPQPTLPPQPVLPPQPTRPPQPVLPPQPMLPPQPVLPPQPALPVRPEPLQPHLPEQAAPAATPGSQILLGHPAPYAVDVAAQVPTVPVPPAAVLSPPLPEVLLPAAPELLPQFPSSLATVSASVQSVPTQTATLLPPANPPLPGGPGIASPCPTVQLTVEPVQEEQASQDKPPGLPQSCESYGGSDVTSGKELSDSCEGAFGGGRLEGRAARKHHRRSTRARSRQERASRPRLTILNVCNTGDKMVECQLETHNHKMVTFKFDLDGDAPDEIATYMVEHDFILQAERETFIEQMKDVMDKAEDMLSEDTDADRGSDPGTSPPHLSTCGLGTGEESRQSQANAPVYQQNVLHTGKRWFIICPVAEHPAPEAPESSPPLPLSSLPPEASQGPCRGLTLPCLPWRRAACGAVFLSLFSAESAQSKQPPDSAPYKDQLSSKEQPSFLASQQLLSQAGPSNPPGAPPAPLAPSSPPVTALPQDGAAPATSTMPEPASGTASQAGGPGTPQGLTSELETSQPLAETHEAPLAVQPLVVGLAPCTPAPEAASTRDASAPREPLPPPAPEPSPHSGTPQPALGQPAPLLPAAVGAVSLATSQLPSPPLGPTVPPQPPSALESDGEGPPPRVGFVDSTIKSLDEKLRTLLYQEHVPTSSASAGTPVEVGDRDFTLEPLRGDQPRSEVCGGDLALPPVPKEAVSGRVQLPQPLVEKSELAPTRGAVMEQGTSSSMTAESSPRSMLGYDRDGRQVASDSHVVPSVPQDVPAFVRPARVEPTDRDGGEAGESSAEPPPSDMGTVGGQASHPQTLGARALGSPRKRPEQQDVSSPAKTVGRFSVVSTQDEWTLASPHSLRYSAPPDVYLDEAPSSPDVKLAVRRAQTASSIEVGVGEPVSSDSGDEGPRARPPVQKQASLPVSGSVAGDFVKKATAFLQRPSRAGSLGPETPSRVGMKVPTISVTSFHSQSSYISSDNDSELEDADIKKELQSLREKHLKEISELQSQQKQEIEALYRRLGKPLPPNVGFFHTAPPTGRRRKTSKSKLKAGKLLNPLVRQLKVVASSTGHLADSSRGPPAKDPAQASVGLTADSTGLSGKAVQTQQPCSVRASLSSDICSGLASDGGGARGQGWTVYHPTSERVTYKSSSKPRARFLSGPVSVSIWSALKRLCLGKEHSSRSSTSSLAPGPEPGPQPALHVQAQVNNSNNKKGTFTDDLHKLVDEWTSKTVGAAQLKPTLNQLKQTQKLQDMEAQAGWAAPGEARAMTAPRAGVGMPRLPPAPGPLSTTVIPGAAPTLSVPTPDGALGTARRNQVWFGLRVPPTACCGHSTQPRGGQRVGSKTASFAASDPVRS

C=CC(=O)Nc1cc(-n2c(=O)ccc3cnc4ccc(-c5ccc(NS(C)(=O)=O)cc5)cc4c32)ccc1C
% of control [1]: 100%

Cc1cc(F)c(C(=O)Nc2cccc(-c3nncn3C(C)C)n2)cc1-n1cnc(C2CC2)c1
% of control [2]: 85%

N#Cc1cccc(-c2c[nH]c3ncnc(N4CCOCC4)c23)c1
% of inhibition [3]: -42%

CNC(=O)Nc1ccc(-c2nc(N3CC4CCC(C3)O4)c3cnn(C4CCC5(CC4)OCCO5)c3n2)cc1
% of control [4]: 99%
% of control [5]: 100%

CCn1c(-c2nc3cc(C(=O)N4CCCC(N)C4)ccc3n2C)cc2ccccc21 (centres undefined)
pXC50 [6]: 4.8 M

CC[C@@H]1[C@H](F)C(=O)N[C@@H]1COc1nccc2cc(C(N)=O)c(OC)cc12 [ZIMLOVISERTIB]
% of inhibition [7]: -7.4%

CN(C)C/C=C/C(=O)Nc1ccc(C(=O)N2CCCC(Nc3ncc(Cl)c(-c4c[nH]c5ccccc45)n3)C2)cc1 (centres undefined)
% of control [8]: 58%
% of control [9]: 95%
